These are literature values, as cited in patent publication US20120201886A1, “Coated Extended Release Pharmaceutical Compositions Containing Paliperidone” (MICRO LABS LIMITED, priority 2010, published 2012).

For the compound `Cc1nc2n(c(=O)c1CCN1CCC(c3noc4cc(F)ccc34)CC1)CCCC2O` (racemic) [Paliperidone, (RS)-3-[2-[4-(6-fluorobenzo[d]isoxazol-3-yl)-1-piperidyl]ethyl]-7-hydroxy-4-methyl-1,5-diazabicyclo[4.4.0]deca-3,5-dien-2-one], the “solubility in 0.1 N hydrochloric acid” value (0.1 N hydrochloric acid) is listed as “soluble”. Besides, the solubility in methanol result (methanol) is recorded as “soluble”. Besides, the “solubility in methylene chloride” value (methylene chloride) is reported as “freely soluble”. Besides, the solubility in water entry (water) is “practically insoluble”.
